Tests used:
skin = test: Clinical evaluations of the hexapeptide complex: moisture content; assay type: in vivo; conditions: after 15 minutes of use
From the text: (§1) The combination of ingredients of the skin care compositions of the present invention are believed to provide synergistic benefits which are otherwise not available with any one of the components used by itself. Clinical evaluations based on the use of the hexapeptide complex itself evidenced a reduction in fine lines and wrinkles, including laugh lines, frown lines, and smile lines, by approximately 13% after 2 weeks and approximately 33% in 4 weeks of use. It was further observed that 100% of participants experienced a reduction in under-eye fine lines and wrinkles on the average of approximately 16% after 4 weeks and approximately 52% after 8 weeks of use. Additionally, an increase in moisture content by 37% after 15 minutes of use was observed.

fine lines and wrinkles = test: Clinical evaluations of the hexapeptide complex: fine lines and wrinkles; assay type: in vivo
From the text: as §1

acetyl hexapeptide-3 [hexapeptide complex]
increase in moisture content (skin): 37% | reduction in fine lines and wrinkles, including laugh lines, frown lines, and smile lines (fine lines and wrinkles; after 2 weeks): approximately 13% | average reduction in under-eye fine lines and wrinkles (fine lines and wrinkles; after 4 weeks): approximately 16% | average reduction in under-eye fine lines and wrinkles (fine lines and wrinkles; after 8 weeks of use): approximately 52% | reduction in fine lines and wrinkles, including laugh lines, frown lines, and smile lines (fine lines and wrinkles; in 4 weeks of use): approximately 33% | participants who experienced a reduction in under-eye fine lines and wrinkles (fine lines and wrinkles; in vivo): 100%
